Experimental data taken from patent publication US20130338221A1, “PHOTOAGING PROTECTIVE COMPOSITION CONTAINING CHROMENES DERIVED FROM SARGASSUM HORNERI” (PUKYONG NATIONAL UNIVERSITY INDUSTRY-UNIVERSITY C, priority 2012, published 2013).

How the values were obtained:
[1] = tested on: human dermal fibroblasts (HDF cells); assay: Protective effect on viability of UV-A irradiated dermal fibroblasts (MTT assay); assay type: cell-based
Procedure: HDF cells were seeded in 24-well plate at a density of 1×10^5 cells/well with DMEM containing 10% FBS, 2 mM gluramine and 100 μg/ml penicillin-streptomycin at 37° C. humidified atmosphere of 5% CO2. After incubation for 24 h, the cells were exposed to UV-A energy at the range of 6 J/cm^2 (365 nm UV-A light source, Bio-Sun lamp, Vilber Lourmat, Marine, France) in 200 μl of phosphate buffered saline (PBS) to each well. After UV-A irradiation, the cells were incubated for 24 h in serum-free DMEM.
Viability level of HDF cell was determined through ability of mitochondria capable of converting 3-(4,5-dimethylthiazol-2-yl)-2,5-diphenyl tetrazolium bromide (MTT) into a insoluble formazan product. Dermal fibroblasts were grown in 96-well plates at a density of 1×10^4 cells/well. After 24 h, after irradiating UV-A (6 J/cm^2) to the cell, the cells were cultured with the chromenes sample or without the chromenes sample at 37° C. humidified atmosphere of 5% CO2. The supernatant medium was removed, and the cells were incubated with 100 μl of MTT (1 mg/ml) for 4 h. The unconvertived MTT was removed, dimethyl sulfoxide (DMSO) was added, and then cell viability was measured at the absorbance at 540 nm using a microplate reader (Tecan Austria GmbH, Austria) to determine the amount of formazan in a cell. Relative cell viability was quantified as a percentage compared to the control group.

[2] = tested on: intracellular reactive oxygen species (ROS) in HDF cells; assay: Intracellular ROS generation by UV-A (DCFH-DA); assay type: cell-based, human
Procedure: Intracellular formation of reactive oxygen species (ROS) was assessed using oxidation sensitive dye 2′,7′-dichlorofluorescin diacetate (DCFH-DA) as the substrate. HDF cells growing in fluorescence microtiter 96-well plates for 24 h were exposed to UV-A (6 J/cm^2). The exposed cells were loaded with 20 μM DCFH-DA dissolved in PBS and incubated for 30 min in the dark at 37° C. humidified atmosphere of 5% CO2. […] The formation of 2′,7′-dichlorofluorescein (DCF) dissolved in PBS due to oxidation of DCFH in the presence of various ROS was read after every 20 min at the excitation wavelength (Ex) of 485 nm and the emission wavelength (Em) of 535 nm using a fluorescence microplate reader (Tecan Austria GmbH, Salzburg, Austria).
The cell system was labeled with DCFH-DA and followed by UV-A irradiation.

[3] = tested on: cell membrane proteins of HDF cells; assay: Cell membrane protein oxidation (carbonyl groups, DNPH) after UV-A; assay type: cell-based, human
Procedure: The amount of carbonyl groups in cell membrane proteins was determined to assess the cellular protein oxidation level that is a standard of determining the degree of cell membrane damage. HDF cells were co-cultured with various concentrations of compounds for 24 h after 6 J/cm^2 of UV-A irradiation. Cell were washed three times with PBS and lysed in lysis buffer without reducing agents (25 mM Tris-HCl, pH 7.8, 2 mM EDTA, 180 mM NaCl and 1% Triton X-100). Aliquots of cell lysates were separately incubated then trichloroacetic acid (400 μl from 20% trichloroacetic acid) was added to each reaction mixture and solubilized proteins were precipitated by centrifugation at 3,000 rpm for 15 minutes. Precipitated protein was resuspended in 2% 2,4-dinitrophenylhydrazine (2 mM HCl) and incubated at room temperature for 20 min. The protein was precipitated again with 20% trichloroacetic acid and the pellet was washed three times with ethanol:ethylacetate (1:1 v/v) solution. The pellet was then dissolved in 6 M guanidin hydrochloride (500 μl) and incubated for 15 min at 37° C. After centrifugation at 1,500 g for 5 min, absorbance of the supernatant was recorded against a complementary blank at 370 nm using a GENios® fluorescence microplate reader (Tecan Austria GmbH, Salzburg, Austria).

[4] = tested on: membrane lipid hydroperoxides of HDF cells; assay: Cell membrane lipid peroxidation (DPPP) after UV-A; assay type: cell-based, human
Procedure: Intracellular lipid hydroperoxide levels were determined by the fluorescence probe, diphenyl-1-pyrenylphosphine (DPPP). HDF cells were seeded into fluorescence microtiter 96-well plates at a density of […] using serum-free media. After 80% confluence, HDF cells were treated with various concentrations of compounds and incubated for 24 h after 6 J/cm^2 of UV-A irradiation. Then, cells were washed three times with PBS and labeled with 13 μM DPPP (dissolved in DMSO) for 24 h at 37° C. in the dark. DPPP oxide fluorescence intensity was measured after 24 h at the excitation wavelength (Ex) of 361 nm and the emission wavelength (Em) of 380 nm using a GENios® fluorescence microplate reader (Tecan Austria GmbH, Salzburg, Austria).
The levels of lipid hydroperoxides in the presence and absence of chromenes were examined by using specific fluorescence probe, DPPP (FIG. 16). DPPP has been used as a sensitive method for measuring lipid hydroperoxides of cell membranes, since it successfully incorporates into membranes and oxidizes hydroperoxides to emit DPPP-oxide fluorescence.

[5] = tested on: intracellular glutathione (GSH) in HDF cells; assay: Intracellular GSH level (mBBr) after UV-A; assay type: cell-based, human
Procedure: Intracellular glutathione (GSH) level in intact cells was determined using monobromobimane as a thiol-staining reagent. HDF cells were seeded into fluorescence microtiter 96-well plates at a density of 5×10^3 cells/well. Cell were washed three times with PBS and treated with various concentrations of the compounds after 6 J/cm^2 of UV-A irradiation and incubated for 30 min. 0.04 mM of Monobromobimane was added to cells and staining was carried out for 24 h at 37° C. in the dark. After staining fluorescence intensity was measured (excitation and emission: 360 and 465 nm) using a GENios® fluorescence microplate reader (Tecan Austria GmbH, Salzburg, Austria).
GSH is the most abundant low molecular weight thiol inside mammalian cells, and changes in glutathione level directly reflect intracellular redox alterations. To investigate the relationship between the increased ROS and the level of antioxidant materials in cells, the intracellular GSH level was measured.

TNF-α [6] = assay: TNF-α secretion ELISA in UV-A irradiated HDF; assay type: cell-based, human
Procedure: (§1) For measuring various collagen degradation MMP and inflammatory cytokine, collagen content in a cell, an enzyme-linked immunosorbent assay was used after UV-A irradiation. After irradiating HDF cell with UV-A, the cells were incubated with various concentrations of sample. After 24 h, the supernatants of the HDF cells were collected, and used for testing MMP, cytokine, hyaluronan, and collagen. For testing, Biotrak™ ELISA kits (Amersham Pharmacia Biosciences, England, UK), procollagen ELISA kit (Takara Bio Inc), and Hyaluronan ELISA kits (R&D system) were used according to the manufacturer's instructions.
(§2) To investigate effect of chromenes on the cytokine production in UV-A irradiated dermal fibroblasts, inflammatory cytokine production was measured using ELISA assay (FIGS. 18 to 20).

IL-1β = IL-1β secretion ELISA in UV-A irradiated HDF; assay type: cell-based, human
Procedure: as §1, §2

IL-6 = IL-6 secretion ELISA in UV-A irradiated HDF; assay type: cell-based, human
Procedure: as §1, §2

hyaluronan = assay: Hyaluronan secretion ELISA in UV-A irradiated fibroblasts; assay type: cell-based, human
Procedure: as §1
Then, we evaluated effect of chromenes on hyaluronan secretion by UV-A irradiation.

MMP-1 = MMP-1 secretion ELISA in UV-A irradiated HDF; assay type: cell-based, human
Procedure: as §1
(§3) Collagens are known to as main component of the skin and degraded by collagenase MMPs. Among MMPs, MMP-1, MMP-8 and MMP-13 are family of collagenases which are capable of degrading triple-helical fibrillar collagens. […] Therefore, inhibitory effect of chromenes on collagenase MMP secretions from the UV-A irradiated dermal fibroblasts was determined using ELISA assay.

MMP-13 = MMP-13 secretion ELISA in UV-A irradiated HDF; assay type: cell-based, human
Procedure: as §1, §3

type I procollagen = assay: Type I procollagen ELISA in UV-A irradiated HDF; assay type: cell-based, human
Procedure: as §1
Alterations of collagen have been thought to be a cause of the clinical skin changes of photoaging. The dermis contains predominantly type I collagen (85-90%) and the precursor molecules of collagen are called procollagen, which is synthesized in the form of polypeptide chains of type I collagen in dermal fibroblasts. UV irradiation induces the activity and synthesis of MMP in human skin, which mediate collagen destruction that results in much connective tissue damage. Therefore, we also studied the effects of chromenes on the level of type I procollagen in UVA-irradiated cultured dermal fibroblasts. The procollagen level was determined in the culture medium by ELISA assay.

TNF-α [7] = assay: TNF-α mRNA and protein expression (RT-PCR, Western blot) in UV-A irradiated HDF; assay type: cell-based, human
Procedure: Total cellular RNA was isolated using Trizol reagent (Invitrogen Co., CA, USA). The 2 μg of isolated RNA was reverse transcribed into cDNA using oligo-(dT) primer (Promega, Madison, Wis., USA). Target cDNA was amplified using the forward and reverse primer sequences. The amplification was carried out at 95° C. for 45 sec, 60° C. for 50 sec and 72° C. for 60 sec for cycles. After amplification step, extension process proceeded consecutively at 72° C. for 5 min. […] Gels were stained with 1 mg/ml of EtBr and photographed by UV illumination using AlphaEase® gel image analysis software (Alpha Innotech., San Leandro, Calif., USA).
Whole cells were lysed in RIPA buffer (Sigma-Aldrich Corp., St. Louis, USA). After centrifugation, total protein amount of cell lysates was determined using Lowry method (BioRad Laboratories, Hercules, Calif., USA). […] All primary monoclonal antibodies were diluted with TBS-T at 1:1000 ratio. Bound antibodies were detected by horseradish peroxidase-conjugated secondary antibodies for 1 h at room temperature and the immunoreactive proteins were detected using a chemiluminescent ECL assay kit (Amersham Pharmacia Biosciences, England, UK) according to the manufacturer's instructions. Western blot bands were visualized using a LAS3000® Luminescent image analyzer (Fujifilm Life Science, Tokyo, Japan).

fibronectin = assay: Immunofluorescent labeling of fibronectin after UV-A; assay type: cell-based, human; details: 10 μM
Procedure: (§4) Immunostaining is used to determine the subcellular distribution and organization of proteins. Cells were grown in 6-well plates, Aspirate liquid, then cover cells to a depth of 2-3 mm with 4% formaldehyde in PBS for 15 min at room temperature. Aspirate fixative, rinse three times in PBS for 5 minutes each then incubated primary antibody and for overnight at 4° C. Rinse three times in PBS for 5 min each. Incubate specimen in fluorochrome-conjugated secondary antibody diluted in Antibody Dilution Buffer for 1-2 h at room temperature in dark and incubated with Hoechest 33342 (Sigma-Aldrich Co. MO, USA). For best results, examine specimens immediately using appropriate excitation wavelength. For long-term storage, store slides flat at 4° C. protected from light. The image of HDF cells were collected using Leica invented microscopy (DM IRB) with 40× objective and a digital CCD camera (CTR 6000, Leica, Wetzlar, Germany) under fluorescence.
(§5) It has been reported that the exposure to UV-A causes degradation of collagen and fibronectin in the extracellular matrix. […] Results were evaluated through the images of the labeling assay under a fluorescent microscope with the previously mentioned excitation and emission values.

hyaluronan synthase 1 = assay: Immunofluorescent labeling of hyaluronan synthase 1 after UV-A; assay type: cell-based, human; details: 10 μM
Procedure: as §4, §5

HDF cells = assay: Phototoxicity determination (MTT, compounds present during UV-A); assay type: cell-based, human; details: retinoic acid 5 μM during UV-A
Procedure: HDF cells are exposed to UV-A light in the presence of chromenes and retinoic acid in concentrations of 5, 10, and 20 μM and 1, 2, and 5 μM, respectively. After 24 h, cell viability was determined by MTT assay.
In order to determine whether compounds have phototoxic effect, the cell viability of dermal fibroblasts was evaluated using MTT assay. Cells were co cultured with compounds and retinoic acid during UV-A irradiation. […] Therefore, the concentration of 1 μM retinoic acid was selected as a positive control for further experiment.

[8] = A and B 5 to 20 μM, C 1 to 10 μM
[9] = Homo sapiens, HDF, retinoic acid 1 μM
[10] = Homo sapiens, retinoic acid 1 μM

In the case of `CC(C)=CCC/C(=C/CC/C(C)=C/CC[C@]1(C)CCc2cc(O)cc(C)c2O1)C(=O)O` [Compound A, sargachromenol], the “Fibroblasts protection (%)” value ([1]; samples 10 μM) was 37.25%, the “ROS scavenging (%)” value ([2]; samples 10 μM) was 38.58% and the “Inhibition of protein oxidation (%)” value ([3]; samples 10 μM) was 30.57%. For the same compound, the “Inhibition of lipid peroxidation (%)” value ([4]; samples 10 μM) was 15.63%, the “Enhancement of GSH level (%)” value ([5]; samples 10 μM) was 23.17% and the “TNF-α secretion (in words)” value (TNF-α [6]; [8]) was “slightly reduced”. For the same compound, the “Inhibition of TNF-α secretion (%)” value (TNF-α [6]; samples 10 μM) was 20.59%, the “IL-1β secretion (in words)” value (IL-1β; [8]) was “slightly reduced” and the “Inhibition of IL-1β secretion (%)” value (IL-1β; samples 10 μM) was 10.07%. For the same compound, the “IL-6 secretion (in words)” value (IL-6; [8]) was “slightly reduced”, the “Inhibition of IL-6 secretion (%)” value (IL-6; samples 10 μM) was 11.11% and the “Hyaluronan (%)” value (hyaluronan; samples 10 μM) was 16.67%. The “MMP-1 secretion (in words)” value (MMP-1; dose-dependent) was “significantly reduced”, the “MMP-1 inhibition (%)” value (MMP-1; samples 10 μM) was 27.76% and the “MMP-13 secretion (in words)” value (MMP-13; dose-dependent) was “significantly reduced”. For the same compound, the “MMP-13 inhibition (%)” value (MMP-13; samples 10 μM) was 23.82%, the “Procollagen (%)” value (type I procollagen; samples 10 μM) was 115.79% and the “Inhibition of TNF-α expression” value (TNF-α [7]) was “failed to show significant activity”. The “Protection of fibronectin decomposition” value (fibronectin) was “not as significant as compound C” and the “Hyaluronan synthase 1 amount” value (hyaluronan synthase 1) was “reduced”.
`CC1=C(/C=C/C(C)=C/C=C/C(C)=C/C(=O)O)C(C)(C)CCC1` [Retinoic acid, retinoic acid, reference compound] was tested, and the “Fibroblasts protection (%)” value ([1]; retinoic acid 1 μM) was 12.21%, the “ROS scavenging (%)” value ([2]; retinoic acid 1 μM) was 46.60% and the inhibition at 1 µM [3, 9] was 55.4%. The inhibition at 1 µM [4, 9] was 21.6%, the “Enhancement of GSH level (%)” value ([5]; retinoic acid 1 μM) was 15.85% and the inhibition at 1 µM (TNF-α [6]; [10]) was 24.4%. For the same compound, the inhibition at 1 µM (IL-1β; [10]) was 6.71%, the inhibition at 1 µM (IL-6; [10]) was 14.1% and the “IL-6 level after treatment” value (IL-6; at the same concentration (1 μM), UV-A irradiated HDF) was 119 pg/mL. The “Hyaluronan (%)” value (hyaluronan; retinoic acid 1 μM) was 31.11%, the inhibition at 1 µM (MMP-1; [10]) was 30.7% and the inhibition at 1 µM (MMP-13; [10]) was 37.1%. The “Type I procollagen secretion level” value (type I procollagen; 1 μM, culture medium, UV-A irradiated HDF) was 60 ng/mL, the “Procollagen (%)” value (type I procollagen; retinoic acid 1 μM) was 57.89% and the Phototoxicity (HDF cells) was “a little phototoxic effect”.
